In patent US8981179B2, “Transgenic non-human animal and uses thereof” (Sanofi, priority 2009, dated 2015):

Key:
[1] = Blood glucose in unfasted CRE-luc mice; assay type: in vivo, mouse; details: line 11, STZ 200 mpk, ip, unfasted mice
Experimental: The induction of CRE-Luc by AVE0010 is likely beta-cell-specific (FIG. 31). Animals were treated as described in FIG. 30. Blood glucose levels were measured by tail vein nicking on unfasted mice. Glucose levels were read on a Bayer glucometer. Glucose levels are shown as mg glucose/[…]. Fold induction is the luciferase bioimaging levels of AVE10 dosing versus the baseline signals. Blood glucose levels (BG) were increased by STZ (upper left panel). Non-fasting BG levels were reduced by AVE0010 (0.1 mg/kg, sc).

beta-cell = test: Effect of beta-cell toxin on induction of CRE-Luc by AVE0010; assay type: in vivo, mouse; details: line 11, STZ 200 mpk, ip, imaged four days later after AVE0010
Experimental: Male CRE-luc mice (line 11) were imaged before and after AVE0010 (0.1 mg/kg, sc) treatment. […] Then, the animals were treated with vehicle or STZ (200 mpk, ip). Four days later, they were imaged again after AVE0010 treatment.

[2] = molecular target: T1, prostaglandin D2 receptor 1 (DP1) (Mus musculus, UniProt P70263); test: Whole splenocytes CreLuc luciferase assay, DP1 agonist; assay type: cell-based; details: line 64 whole splenocytes, 10 uM, 4 hours
T1 construct: Primary microglia were isolated from the cortices from P2 mice; endogenous in cells; host or cells: whole splenocytes, CD4+ T cells and primary microglia (P2 cortices), CreLuc mouse line 64
T1 sequence (P70263 1-357): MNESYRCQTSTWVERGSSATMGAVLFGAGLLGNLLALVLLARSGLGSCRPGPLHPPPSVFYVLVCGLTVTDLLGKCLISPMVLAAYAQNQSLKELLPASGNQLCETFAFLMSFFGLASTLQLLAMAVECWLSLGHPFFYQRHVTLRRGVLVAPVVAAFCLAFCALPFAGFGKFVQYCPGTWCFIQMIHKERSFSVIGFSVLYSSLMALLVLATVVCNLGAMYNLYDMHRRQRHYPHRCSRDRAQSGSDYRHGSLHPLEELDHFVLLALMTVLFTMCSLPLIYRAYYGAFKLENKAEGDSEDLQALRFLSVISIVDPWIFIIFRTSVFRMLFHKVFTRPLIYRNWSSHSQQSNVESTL
Experimental: Whole splenocyte preps isolated from CreLuc mice were used to show the effects of general cAMP inducers such as forskolin and rolipram, as well as Gs agonists on luciferase expression (FIG. 16). Spleens were harvested from the animals in 1×HBSS (Invitrogen, Carlsbad, Calif., cat#14025). The cells were then isolated by mechanically disrupting the spleen capsule using the end of a 5 ml syringe in 5 mls of D-PBS (Invitrogen, Carlsbad, Calif., cat#14190). The cell suspension was then passed through a 70 um strainer into a 50 ml conical tube. The cells were then spun down at 800 rpm, then resuspended and incubated for 6 minutes at room temperature in 5 ml of 1× Pharm Lyse solution (BD BioSciences, cat#555899). Cells were then washed by adding 28 mls of media consisting of RPMI 1640 (Invitrogen, Carlsbad, Calif., cat#11875), 10% FCS (Invitrogen, Carlsbad, Calif., cat#16000), 1% pen/strep (Invitrogen, Carlsbad, Calif., cat#15070) and 0.1% β-mercaptoethanol (Invitrogen, Carlsbad, Calif., cat#21985). Cells were diluted to 2×10^6/ml, and 100 ul of the cells were plated per well in a 96 well white opaque plate. Half of the cells were stimulated for 24 hours with anti-CD3 antibody (BD Pharmingen, cat#553058), the other half were untreated. […] After 4 hours, 100 μl of BrightGlo (Promega, Madison, Wis., cat#E2610) and the assay was read on a TopCount luminometer. […]

DP1 receptor = molecular target: T2, DP1 receptor (Mus musculus, UniProt P70263); test: Primary microglia CreLuc luciferase assay, DP agonist; assay type: cell-based; details: 10 μM, 4 hours
T2 construct: Primary microglia were isolated from the cortices from P2 mice; endogenous in cells; host or cells: whole splenocytes, CD4+ T cells and primary microglia (P2 cortices), CreLuc mouse line 64
T2 sequence (P70263 1-357): T1 sequence (P70263 1-357)
Experimental: (§1) Induction of luciferase expression in microglia isolated from CreLuc mice by the general cAMP activators, forskolin and rolipram, and an agonist for the DP receptor, BW245C was examined (FIG. 22). Primary microglia were isolated from the cortices from P2 mice in media consisting of DMEM (GIBCO Cat#11995), 10% FBS (GIBCO Cat#16140) and 1% Penicillin-Streptomycin 100× (GIBCO Cat#15140). The cells were plated in 96 well format on Poly-D-Lysine-coated plates. Cells were either left untreated or stimulated for 2 hours with 100 ng/ml LPS. Compounds were then added for an additional 4 hours before the Bright Glo assay was run. The compounds used were 5 μM forskolin, 10 μM rolipram or the combination of the two, or the Gs agonist for the DP1 receptor, BW245C at 10 μM. In unstimulated conditions, microglia are unresponsive to general cAMP modulators and the specific Gs agonist for the DP receptor. However, when microglia were stimulated with LPS, the cells became responsive to forskolin and BW245C.

DP = molecular target: T3, DP (Mus musculus, UniProt P70263); test: Isolated CD4+ T cells CreLuc luciferase assay, DP agonist; assay type: cell-based; details: line 64 CD4+ T cells, anti CD3 24 hours, 10 μM, 4 hours
T3 construct: Primary microglia were isolated from the cortices from P2 mice; endogenous in cells; host or cells: whole splenocytes, CD4+ T cells and primary microglia (P2 cortices), CreLuc mouse line 64
T3 sequence (P70263 1-357): T1 sequence (P70263 1-357)
Experimental: The effects of different Gs agonists on luciferase levels in anti CD3 stimulated CD4+ T cells isolated from CreLuc mice was studied (FIG. 19). Whole splenocyte populations were prepared by mechanical disruption. CD4+ cells were then isolated by MACS Magnetic Separation with Positive Selection (Miltenyi Biotec cat#130-049-201). The cells, 1.5×10^5 per well, were then plated on 96 well white opaque plates and then stimulated with anti CD3 antibodies (BD Pharmingen cat#553058). After 24 hours, compounds were added for an additional 4 hours. Gs agonists for DP (BW245C), EP2 (EX00000173A) and ADβR (isoproterenol) were all used at 10 μM. Forskolin 5 μM, and rolipram 10 μM. BrightGlo (Promega, Madison, Wis., cat#E2610) was added and the assay was read on the TopCount. A 25-fold increase is observed in cells treated with forskolin and rolipram. […] The transgene was responsive to specific Gs agonists as well as general modulators of the cAMP pathway.

plasma cAMP [3] = test: In vivo stimulation of cAMP in plasma (ELISA); design: species or system FVB/Tac mice; details: FVB/Tac females, i.p., forskolin 5 mg/kg, rolipram 10 mg/kg, 30 minutes
Experimental: FVB/Tac females were dosed with either vehicle (1% DMSO) or drugs i.p., then 30 minutes later, blood samples were collected and assayed for cAMP by ELISA (Assay Designs, Ann Arbor, Mich., cat#900-163). The drugs used are as follows: 5 mg/kg forskolin (F) (Sigma F6886), 5 mg/kg water soluble forskolin (H20F) (Calbiochem 344273), 10 mg/kg rolipram (R) (Sigma R6520) or combinations of either forskolin plus rolipram (F/R). […] Forskolin increases cAMP levels by activating adencylate cyclase while inhibitors of PDE4, such as rolipram, raise plasma cAMP by preventing hydrolysis of cAMP. A combination of rolipram and water soluble forskolin increases cAMP levels in vivo 14 fold. This combination was used to provide a large window of induction for founder screening by bioimaging, a representative study is shown in FIG. 6.
FIG. 5B is a cAMP assay on plasma levels in wild-type mice following various treatment with forskolin (F), rolipram (R) or a combination of forskolin and rolipram (F/R). […]

[4] = test system: cAMP (CreLuc luciferase reporter); test: Primary microglia CreLuc luciferase assay, general cAMP activators; assay type: cell-based, mouse; details: line 64, unstimulated, 5 μM forskolin, 10 μM rolipram, 4 hours
Experimental: as §1

plasma cAMP [5] = details: Balb/c mice, 10 mg/kg, blood harvested after 20 minutes; cited from earlier work

SMILES: CN(N=O)C(=O)N[C@H]1C(O)O[C@H](CO)[C@@H](O)[C@@H]1O (mixture of isomers) [STZ, streptozotocin]
- blood glucose levels (BG) [1]: increased
- luciferase induction by AVE0010 compared to vehicle group (beta-cell): decreased luciferase induction

SMILES: O=C(O)CCCCCCC1C(=O)NC(=O)N1CCC(O)C1CCCCC1 (stereo not drawn) [BW245C]
- luciferase versus DMSO only control (t-test) [2]: Statistically significant increases
- luciferase response of LPS stimulated microglia (DP1 receptor; line 64, 100 ng/ml LPS 2 hours): responsive
- luciferase response of unstimulated microglia (DP1 receptor; line 64, unstimulated): unresponsive
- increase of luciferase (DP): 3 fold

SMILES: COc1ccc(C2CNC(=O)C2)cc1OC1CCCC1 (stereo not drawn) [rolipram]
- elevation of circulating cAMP levels vs vehicle (plasma cAMP [3]): statistically significance in their elevation
- luciferase response of unstimulated microglia [4]: unresponsive
- plasma cAMP levels (plasma cAMP [5]): significantly increase
